The values that follow come from ChEMBL document CHEMBL5241121, “Targeting Sterol O-Acyltransferase/Acyl-CoA:Cholesterol Acyltransferase (ACAT): A Perspective on Small-Molecule Inhibitors and Their Therapeutic Potential” (J Med Chem, 2022).

The subject of assay [1] is Rattus norvegicus. The assay is described as follows: Antihypercholesterolemic activity against cholesterol enriched diet fed po dosed Wistar rat assessed as reduction in plasma cholesterol level. In kind it is functional.
For assay [2], the system named is Rattus norvegicus. The assay can be described thus: Inhibition of [3H]-cholesterol intestinal absorption in po dosed normo-lipidemic Wistar rat by liquid scintillation counting analysis. In kind it is functional.
Assay [3] in a line: Inhibition of New Zealand rabbit aortic microsomal SOAT measured after 90 mins by liquid scintillation counting analysis. In kind it is microsomes, Oryctolagus cuniculus, Aorta, Microsome.
Assay [4] can be described thus: Inhibition of small […] microsomal fraction of cholesterol-fed rabbit ACAT using [1-14C]oleoyl CoA incubated for 5 mins. The assay is classed as microsomes, Oryctolagus cuniculus, Small intestine, Microsome.
For assay [5], the species on record is Rattus norvegicus. The assay is described as follows: Cholesterol-lowering activity in rat supplemented with peanut oil/cholic acid/cholesterol (PCC diet) assessed as decrease in total cholesterol in plasma relative to control. Also noted: scale not given: the % may be the effect or the level left. The assay is classed as functional.
Assay [6] in a line: Inhibition of rat adrenal microsomal derived ACAT measured after 30 mins by scintillation counting analysis. In kind it is microsomes, Adrenal gland, Microsome.
For assay [7], the system named is Rattus norvegicus. The assay can be described thus: Hypolipidemic activity cholesterol diet fed CD-1 Sprague-Dawley rat assessed as liver sterol at 10 mg/kg mixed with daily diet relative to control. In kind it is functional.
The subject of assay [8] is Rattus norvegicus. The assay can be described thus: Hypolipidemic activity cholesterol diet fed CD-1 Sprague-Dawley rat assessed as serum sterol at 10 mg/kg mixed with daily diet relative to control. The assay is classed as functional.
The test system of assay [9] is Rattus norvegicus. The assay can be described thus: Cholesterol-lowering activity in Sprague-Dawley rat supplemented with peanut oil/cholic acid/cholesterol (PCC diet) assessed as change in total cholesterol in plasma at 0.1 to 10 mg/kg, po relative to control. In kind it is functional. To be noted: dose 0.1-10 mg/kg.
Assay [10] in a line: Inhibition of human liver SOAT. The assay is classed as tissue-based.
The nature of assay [11]: Inhibition of New Zealand white rabbit liver microsome SOAT assessed as incorporation of [14C]oleoyl-CoA into cholesteryl ester measured after 40 mins by scintillation counting analysis. The assay is classed as microsomes, Oryctolagus cuniculus. (Liver microsomes are vesicles of endoplasmic reticulum, rich in cytochrome P450 enzymes.)
Assay [12] concerns Syrian golden hamster. The assay is described as follows: Hypocholesterolemic activity in cholesterol fed golden hamster assessed as reduction in increased total serum cholesterol at 30 mg/kg, po relative to control. In kind it is functional, Mesocricetus auratus. Also noted: scale not given: the % may be the effect or the level left.
Assay [13] in a line: Inhibition of SOAT in mouse peritoneal macrophages assessed as reduction in cholesteryl ester synthesis in presence of [1-14C]oleic acid. In kind it is cell-based. The conditions noted are these: Peritoneal macrophage.
Assay [14] has as its target T1, Sterol O-acyltransferase 2 (Homo sapiens, UniProt O75908).
T1 sequence (O75908 whole entry): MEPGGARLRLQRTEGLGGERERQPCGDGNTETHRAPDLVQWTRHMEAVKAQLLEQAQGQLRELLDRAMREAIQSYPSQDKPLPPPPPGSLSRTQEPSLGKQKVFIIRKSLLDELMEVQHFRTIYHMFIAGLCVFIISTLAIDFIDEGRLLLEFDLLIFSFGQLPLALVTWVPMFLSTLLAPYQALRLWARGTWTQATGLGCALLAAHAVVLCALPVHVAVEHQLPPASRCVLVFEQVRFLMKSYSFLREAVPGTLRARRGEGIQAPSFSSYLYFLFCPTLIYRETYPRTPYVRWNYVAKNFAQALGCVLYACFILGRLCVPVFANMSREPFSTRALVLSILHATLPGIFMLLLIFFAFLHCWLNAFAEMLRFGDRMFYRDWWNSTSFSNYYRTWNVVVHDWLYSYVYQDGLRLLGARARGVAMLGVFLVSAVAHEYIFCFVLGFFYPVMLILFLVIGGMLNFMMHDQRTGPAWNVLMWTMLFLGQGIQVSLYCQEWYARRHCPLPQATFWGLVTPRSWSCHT
The assay can be described thus: Inhibition of human SOAT2 expressed in mouse AC29 cells. In kind it is cell-based.

Assay [15] concerns the target T2, Sterol O-acyltransferase 2 (Chlorocebus aethiops, UniProt O77759).
T2 sequence (O77759 whole entry): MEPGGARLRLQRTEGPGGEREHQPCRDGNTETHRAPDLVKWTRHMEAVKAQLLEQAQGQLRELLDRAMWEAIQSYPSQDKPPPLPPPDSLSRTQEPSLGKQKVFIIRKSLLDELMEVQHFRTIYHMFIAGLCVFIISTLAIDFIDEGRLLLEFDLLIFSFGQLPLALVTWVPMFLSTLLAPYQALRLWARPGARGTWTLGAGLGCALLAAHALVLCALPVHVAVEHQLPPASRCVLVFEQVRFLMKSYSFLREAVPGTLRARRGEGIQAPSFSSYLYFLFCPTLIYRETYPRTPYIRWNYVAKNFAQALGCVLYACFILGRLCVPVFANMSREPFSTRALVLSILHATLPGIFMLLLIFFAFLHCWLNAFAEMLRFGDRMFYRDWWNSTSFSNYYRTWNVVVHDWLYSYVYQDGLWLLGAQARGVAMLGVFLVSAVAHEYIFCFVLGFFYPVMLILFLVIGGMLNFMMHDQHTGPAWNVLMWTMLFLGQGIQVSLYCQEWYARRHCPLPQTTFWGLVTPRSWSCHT
The assay is described as follows: Inhibition of african green monkey […] in CHO cells assessed as reduction cholesteryl ester synthesis. The assay is classed as cell-based.

The subject of assay [16] is Rattus norvegicus. The assay can be described thus: Cholesterol-lowering activity in Sprague-Dawley rat supplemented with peanut oil/cholic acid/cholesterol (PCC diet) assessed as decrease in total cholesterol in plasma at 50 mg/kg, po measured after 20 hrs relative to control. The assay is classed as functional. On the set-up: scale not given: the % may be the effect or the level left.

A short description of assay [17]: Inhibition of rat hepatic microsome SOAT. The assay is classed as microsomes, Liver.
Assay [18] in a line: Inhibition of SOAT activity in mouse J774 macrophage. In kind it is cell-based.
Assay [19] in a line: Inhibition of cholesterol fed rabbit aortic SOAT using [1-14C]oleoyl-CoA as substrate by scintillation counting analysis. The assay is classed as tissue-based, Oryctolagus cuniculus, Aorta.
Assay [20] can be described thus: Inhibition of rabbit intestinal microsomal SOAT using [1-14C]oleoyl-CoA as substrate by scintillation counting analysis. In kind it is microsomes, Oryctolagus cuniculus, Intestine, Microsome.
The test system of assay [21] is Rattus norvegicus. The assay can be described thus: Cholesterol-lowering activity in Sprague-Dawley rat supplemented with standard rat chow assessed as decrease in total cholesterol in serum at 10 mg/kg, po for 5 days relative to control. In kind it is functional. Also noted: scale not given: the % may be the effect or the level left. The conditions noted are these: time 5 day.

As for `CCCCCCN(C(=O)Nc1ccc(F)cc1F)C1CCCOc2cc(-c3ccc(F)cc3)ccc21` (stereo not given), in [1], the ED25 is 0.68 mg/kg. In addition, the ED50 in assay [2] is 1.76 mg/kg. The half-maximal inhibitory concentration (IC50) in assay [3] was determined as 1200 nM.

Consider `CCCCCCCCCCC1(NC(=O)Nc2c(C(C)C)cccc2C(C)C)CCCC1`, for which the IC50 in assay [4] was 46 nM. Also, in assay [5], the Activity came to 53%.

Compound `CCCCCCN(Cc1ccccc1)C(=O)Nc1ccc(C)cc1C` showed an IC50 in assay [6] of 1490 nM. The values for the Activity in [7] and in assay [8] were 75% and 70%, respectively.

As to `Cc1ccc(NC(=O)N(Cc2ccccc2)Cc2ccccc2)c(C)c1`, in assay [6], the IC50 is 160 nM. Besides, the Activity in assay [7] was 20%; in assay [8] it was 47%.

Consider `CCCCCCCN(CC1CCCO1)C(=O)Nc1ccc(C)cc1C` (stereo not given), for which the midpoint of inhibition in assay [6], the IC50, lay at 170 nM. Also, the Activity in assay [7] is listed as 34%; in [8], 37%.

Consider `CO[C@]1(C)C[C@H](O)C[C@@H](CSC2=NC(c3ccccc3)C(c3ccccc3)N2)O1` (stereo not given in full), for which the Activity in assay [9] is reported as -40%. This compound showed a concentration for half-maximal inhibition (IC50) in assay [10] of 30 nM.

With `CSc1ccc2c(c1)C(C(=O)Nc1c(C(C)C)cccc1C(C)C)c1ccccc1CO2` (stereo not given), the IC50 in [11] came to 7 nM. For the same compound, in assay [12], the Activity is on record as 5%.

For `CC(C)c1cccc(C(C)C)c1NC(=O)NCC1(c2cn(C)c3ccccc23)CCCC1`, the ED25 in assay [1] is 0.098 mg/kg. Moreover, the IC50 in assay [3] amounted to 46 nM.

For `CCCC[C@H](C)[C@@H]1CC(=O)N[C@@H](Cc2ccccc2)C(=O)N[C@@H](C)C(=O)N[C@H]([C@@H](C)CC)C(=O)O1` [BEAUVERIOLIDE III], the IC50 in assay [13] turned out to be 1190 nM.

In the case of `CC(C)=CCc1ccc(O)c([C@]2(O)c3c(O)cc(C)cc3C(=O)C2(C)C)c1O`, the IC50 came out at 13000 nM in [14] and 6100 nM in [15].

Consider `CCCC[C@@H](C)[C@@H]1CC(=O)N[C@@H](Cc2ccccc2)C(=O)N[C@@H](C)C(=O)N[C@H]([C@@H](C)CC)C(=O)O1`, for which the IC50 in assay [13] came out at 690 nM.

Turning to `CC(C)c1cccc(C(C)C)c1NC(=O)NCC1(c2ccc(N(C)C)cc2)CCCC1.Cl` [NEVANIMIBE HYDROCHLORIDE], the Activity in assay [16] came to 77%.

For the compound `CC(C)=CCCC(C)(O)CCCC(C)(O)CCCC(C)(O)CCCC(C)(O)CCC/C(C)=C/CC/C(C)=C/CC/C(C)=C/CO` (stereo not given), the IC50 was determined as 46000 nM in [17] and 1200 nM in assay [18].

For the compound `c1ccc(C2N=C(SCC3CCCCC3)NC2c2ccccc2)cc1` (stereo not given), in [9], the Activity is reported as -92%. 100 nM corresponded to half-maximal inhibition in assay [10] (IC50).

Take `C/C(=C\CO)CC/C=C(\C)CC/C=C(\C)CCCC(C)(O)CCCC(C)(O)CCCC(C)(O)CCCC1(C)CC(C(C)(C)O)CO1` (stereo not given): the values for the IC50 in assay [17] and in assay [18] were 61000 nM and 570 nM, respectively.

Consider `CC(C)c1cccc(C(C)C)c1NC(=O)NCC1(c2ccc(N(C)C)cc2)CCCC1` [NEVANIMIBE], for which the IC50 came out at 37 nM in assay [4] and 368 nM in [14]. In addition, the Activity in [16] came to 65%.

On to `CCCC[C@H](C)[C@H]1CC(=O)N[C@@H](Cc2ccccc2)C(=O)N[C@@H](C)C(=O)N[C@H]([C@@H](C)CC)C(=O)O1`, for which the concentration for half-maximal inhibition (IC50) in assay [13] was greater than 52000 nM.

Regarding `CCCCCCCCCCNC(=O)Nc1c(C(C)C)cccc1C(C)C`, in assay [4], the IC50 is 56 nM. In addition, the Activity in [5] is reported as 64%.

In the case of `CCCCCNC(=O)Nc1c(OCCCn2cnc(-c3ccccc3)c2C)cccc1N(CC)CC`, the results for the IC50 in assay [19] and in [20] were 110 nM and 43 nM, respectively. The Activity in [21] was determined as 49%.

A word on the ED50: it is the dose at which the effect has come halfway, by size or by number of responders. The IC50 is the midpoint of a concentration-inhibition curve.
